Results from patent US10870646B2, “Oxazolidinones and pharmaceutical compositions thereof for treating bacterial infections, including infection of Mycobacterium tuberculosis” (University of St. Thomas, priority 2017, dated 2020).
In brackets after ≈: the same amount, converted by molar mass. Read-outs that look alike come from different tables or passages of the source.

Columns and labels:
[1] = system: Mycobacterium tuberculosis 115R; assay: MIC90 broth macrodilution; type: cell-based
[2] = system: Mycobacterium tuberculosis 124R; assay: MIC90 broth macrodilution; type: cell-based
[3] = system: Mycobacterium tuberculosis H37Rv; assay: MIC90 broth macrodilution; type: cell-based
[4] = system: Mtb; type: cell-based, Mycobacterium tuberculosis

| SMILES | MIC90 [1] | MIC90 [2] | activity against growth (in words) [3] | frequency of spontaneous mutations that confer resistance [4] | MIC90 ([1]; read-out: MIC90) | MIC90 ([2]; read-out: MIC90) |
| --- | --- | --- | --- | --- | --- | --- |
| CC(=O)NC[C@H]1CN(c2ccc3c(c2)Oc2ccccc2O3)C(=O)O1 [Compound T145] | 0.5 to 1 µg/mL (≈ 1.47 to 2.94 µM) | 0.5 to 1 µg/mL (≈ 1.47 to 2.94 µM) | potent activity | 4.0×10^−8 |  |  |
| COc1cccc2c1Oc1ccc(N3C[C@H](CNC(C)=O)OC3=O)cc1O2 [Compound T197, (S)—N-((3-(6-methoxydibenzo[b,e][1,4]dioxin-2-yl)-2-oxooxazolidin-5-yl)methyl)acetamide] |  |  |  |  | 8 to 16 µg/mL (≈ 21.6 to 43.2 µM) | 4 to 8 µg/mL (≈ 10.8 to 21.6 µM) |
| CC(=O)NC[C@H]1CN(c2ccc(N3CCOCC3)c(F)c2)C(=O)O1 [Linezolid, reference compound] |  |  |  |  | 0.25 to 0.5 µg/mL (≈ 0.741 to 1.48 µM) | 0.25 to 0.5 µg/mL (≈ 0.741 to 1.48 µM) |
| C[C@@H](O)[C@H]1C(=O)N2C(C(=O)O)=C(S[C@@H]3CN[C@H](C(=O)N(C)C)C3)[C@H](C)[C@H]12 [Meropenem, reference compound] |  |  |  |  | 8 to 16 µg/mL (≈ 20.9 to 41.7 µM) | 8 to 16 µg/mL (≈ 20.9 to 41.7 µM) |
